Assay results: patent US9302999B2, “Substituted triazoles as herbicides” (E. I. DU PONT DE NEMOURS AND COMPANY, priority 2012, dated 2016)

Assays:
Type in all cases: in vivo
[1] = test system: wheat (Triticum aestivum); assay: Test A pre-/postemergence: wheat
Summary of the method: (§1)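 Seeds were sown in loam/sand blend and sprayed preemergence (directed soil spray) and, simultaneously, postemergence at 2–10 cm, one- to two-leaf stage, using compounds in non-phytotoxic solvent with surfactant. After ~10 days in greenhouse, injury was rated visually versus untreated controls, 0 (no effect) to 100 (complete control).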

[2] = test system: ducksalad (Heteranthera limosa); assay: Test B flooded paddy: ducksalad; conditions: Flood; 125 g ai/ha; applied to paddy water at 2-leaf stage; visually evaluated after 13 to 15 days
Summary of the method: (§2)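 Plants were grown to the 2-leaf stage, then pots were flooded to 3 cm above the soil and compounds were applied directly into the paddy water. Water depth was held for the whole test; after 13 to 15 days in a greenhouse, injury was visually rated against untreated controls (0 = no effect, 100 = complete control).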

[3] = test system: crabgrass, large (large crabgrass, Digitaria sanguinalis); assay: Test A pre-/postemergence: crabgrass, large
Summary of the method: as §1

[4] = test system: barnyardgrass (Echinochloa crus-galli); assay: Test B flooded paddy: barnyardgrass; conditions: Flood; 125 g ai/ha; applied to paddy water at 2-leaf stage; visually evaluated after 13 to 15 days
Summary of the method: as §2

[5] = test system: pigweed (Amaranthus retroflexus); assay: Test A pre-/postemergence: pigweed
Summary of the method: as §1

[6] = test system: barnyardgrass (Echinochloa crus-galli); assay: Test A pre-/postemergence: barnyardgrass
Summary of the method: as §1

[7] = test system: morningglory (Ipomoea spp.); assay: Test A pre-/postemergence: morningglory
Summary of the method: as §1

[8] = test system: velvetleaf (Abutilon theophrasti); assay: Test A pre-/postemergence: velvetleaf
Summary of the method: as §1

[9] = test system: corn (Zea mays); assay: Test A pre-/postemergence: corn
Summary of the method: as §1

[10] = test system: rice (Oryza sativa); assay: Test B flooded paddy: rice; conditions: Flood; 125 g ai/ha; applied to paddy water at 2-leaf stage; visually evaluated after 13 to 15 days
Summary of the method: as §2

[11] = test system: sedge, umbrella (small-flower umbrella sedge Cyperus difformis); assay: Test B flooded paddy: sedge, umbrella; conditions: Flood; 125 g ai/ha; applied to paddy water at 2-leaf stage; visually evaluated after 13 to 15 days
Summary of the method: as §2

[12] = test system: foxtail, giant (giant foxtail, Setaria faberii); assay: Test A pre-/postemergence: foxtail, giant
Summary of the method: as §1

[13] = test system: Scentless Chamomile (MATIN Matricaria inodora); assay: Test H post-emergence, alone and in combination: Scentless Chamomile
Text: (§3) Seeds of plant species selected from wheat (TRZAW, Triticum aestivum), barley (HORBW, Hordeum vulgare), Kochia (KCHSC, Kochia caoparia) blackgrass (ALOMY, Alopecurus myosuroides), canarygrass (PHAMI, Phalaris minor), Italian ryegrass (LOLMU, Lolium multiflorum) common lambsquarter (CHEAL, Chenopodium album), pigweed (AMARE, Amaranthus retroflexus), Common Chickweed (STEME, Stellaria media), Russian thistle (SASKR, Salsola iberica), Wild Buckwheat (POLCO, Polygonum convolvulus), Catchweed Bedstraw (GALAP, Galium aparine), Mustard (SINAR, Sinapisar arvensis), Henbit Deadnettle (LAMAM, Lamium amplexicaule), Wild Radish (RAPRA, Raphanus raphanistrum), Field Poppy (PAPRH, Papaver rhoeas), Field Violet (VIOAR, Viola arvennsis), Scentless Chamomile (MATIN Matricaria inodora) were planted into soil and treated post-emergence with test chemicals formulated in a non-phytotoxic solvent mixture. Plants were grown in a greenhouse using supplemental lighting to maintain a photoperiod of approximately 14 hours; daytime and nighttime temperatures were approximately 23°-29° and 16°-19° Celsius, respectively. Balanced fertilizer was applied through the watering system. Treated plants and controls were maintained in a greenhouse for 20 days, after which time all species were compared to controls and visually evaluated. Plant response ratings were calculated as the mean of three replicates (unless otherwise indicated), are summarized in Table G, and are based on a scale of 0 to 100 where 0 is no effect and 100 is complete control. A dash (-) response means no test result.

[14] = test system: pigweed (AMARE, Amaranthus retroflexus); assay: Test H post-emergence, alone and in combination: pigweed
Text: as §3

[15] = test system: Kochia (KCHSC, Kochia caoparia); assay: Test H post-emergence, alone and in combination: Kochia
Text: as §3

[16] = test system: canarygrass (PHAMI, Phalaris minor); assay: Test H post-emergence, alone and in combination: canarygrass
Text: as §3

[17] = test system: Henbit Deadnettle (LAMAM, Lamium amplexicaule); assay: Test H post-emergence, alone and in combination: Henbit Deadnettle
Text: as §3

[18] = test system: common lambsquarter (CHEAL, Chenopodium album); assay: Test H post-emergence, alone and in combination: common lambsquarter
Text: as §3

[19] = test system: blackgrass (ALOMY, Alopecurus myosuroides); assay: Test H post-emergence, alone and in combination: blackgrass
Text: as §3

[20] = test system: barley (HORBW, Hordeum vulgare); assay: Test H post-emergence, alone and in combination: barley
Text: as §3

[21] = test system: Catchweed Bedstraw (GALAP, Galium aparine); assay: Test H post-emergence, alone and in combination: Catchweed Bedstraw
Text: as §3

[22] = test system: Field Poppy (PAPRH, Papaver rhoeas); assay: Test H post-emergence, alone and in combination: Field Poppy
Text: as §3

[23] = test system: Russian thistle (SASKR, Salsola iberica); assay: Test H post-emergence, alone and in combination: Russian thistle
Text: as §3

[24] = test system: Italian ryegrass (LOLMU, Lolium multiflorum); assay: Test H post-emergence, alone and in combination: Italian ryegrass
Text: as §3

[25] = test system: Mustard (SINAR, Sinapisar arvensis); assay: Test H post-emergence, alone and in combination: Mustard
Text: as §3

[26] = test system: Wild Radish (RAPRA, Raphanus raphanistrum); assay: Test H post-emergence, alone and in combination: Wild Radish
Text: as §3

[27] = test system: wheat (TRZAW, Triticum aestivum); assay: Test H post-emergence, alone and in combination: wheat
Text: as §3

[28] = test system: Field Violet (VIOAR, Viola arvennsis); assay: Test H post-emergence, alone and in combination: Field Violet
Text: as §3

[29] = test system: Common Chickweed (STEME, Stellaria media); assay: Test H post-emergence, alone and in combination: Common Chickweed
Text: as §3

[30] = test system: Wild Buckwheat (POLCO, Polygonum convolvulus); assay: Test H post-emergence, alone and in combination: Wild Buckwheat
Text: as §3

[31] = Postemergence, 125 g ai/ha, 0 to 100 scale, 0 is no effect, 100 is complete control
[32] = Postemergence, 500 g ai/ha, 0 to 100 scale, 0 is no effect, 100 is complete control
[33] = Preemergence, 125 g ai/ha, 0 to 100 scale where 0 is no effect and 100 is complete control
[34] = Preemergence, 500 g ai/ha, 0 to 100 scale (0 no effect, 100 complete control)

SMILES: FC(F)(F)c1cccc(-n2nc(Oc3ccnc(C(F)(F)F)c3)c(C3CC3)n2)c1 [Compound 200]
- Plant response rating, Wheat [1, 31]: 0
- Wheat plant response rating [1, 32]: 0
- Plant response rating, Wheat [1, 33]: 0
- Plant response rating, Wheat [1, 34]: 0
- Plant response rating, Ducksalad (0 to 100 scale, 0 is no effect, 100 is complete control) [2]: 0
- Plant response rating, Crabgrass, Large [3, 31]: 10
- Crabgrass, Large plant response rating [3, 32]: 40
- Plant response rating, Crabgrass, Large [3, 33]: 80
- Plant response rating, Crabgrass, Large [3, 34]: 100
- Plant response rating, Barnyardgrass (0 to 100 scale, 0 is no effect, 100 is complete control) [4]: 0
- Plant response rating, Pigweed [5, 31]: 50
- Pigweed plant response rating [5, 32]: 100
- Plant response rating, Pigweed [5, 33]: 50
- Plant response rating, Pigweed [5, 34]: 100
- Plant response rating, Barnyardgrass [6, 31]: 0
- Barnyardgrass plant response rating [6, 32]: 10
- Plant response rating, Barnyardgrass [6, 33]: 0
- Plant response rating, Barnyardgrass [6, 34]: 0
- Plant response rating, Morningglory [7, 31]: 10
- Morningglory plant response rating [7, 32]: 30
- Plant response rating, Morningglory [7, 33]: 0
- Plant response rating, Morningglory [7, 34]: 10
- Plant response rating, Velvetleaf [8, 31]: 10
- Velvetleaf plant response rating [8, 32]: 40
- Plant response rating, Velvetleaf [8, 33]: 0
- Plant response rating, Velvetleaf [8, 34]: 0
- Plant response rating, Corn [9, 31]: 10
- Corn plant response rating [9, 32]: 20
- Plant response rating, Corn [9, 33]: 0
- Plant response rating, Corn [9, 34]: 0
- Plant response rating, Rice (0 to 100 scale, 0 is no effect, 100 is complete control) [10]: 0
- Plant response rating, Sedge, Umbrella (0 to 100 scale, 0 is no effect, 100 is complete control) [11]: 0
- Plant response rating, Foxtail, Giant [12, 31]: 10
- Foxtail, Giant plant response rating [12, 32]: 20
- Plant response rating, Foxtail, Giant [12, 33]: 70
- Plant response rating, Foxtail, Giant [12, 34]: 100

SMILES: COC(=O)c1ccc(C(F)(F)F)nc1S(=O)(=O)NC(=O)Nc1nc(OC)cc(OC)n1 [b2b, flupyrsulfuron-methyl]
- MATIN plant response ([13]; Rate 8): 90
- MATIN plant response ([13]; Rate 16): 95
- MATIN plant response ([13]; Rate 31): 100
- MATIN plant response ([13]; Rate 62): 95
- AMARI plant response ([14]; Rate 8): 100
- AMARI plant response ([14]; Rate 16): 100
- AMARI plant response ([14]; Rate 31): 100
- AMARI plant response ([14]; Rate 62): 100
- KCHSC plant response ([15]; Rate 8): 75
- KCHSC plant response ([15]; Rate 16): 100
- KCHSC plant response ([15]; Rate 31): 80
- KCHSC plant response ([15]; Rate 62): 95
- PHAMI plant response ([16]; Rate 8): 40
- PHAMI plant response ([16]; Rate 16): 55
- PHAMI plant response ([16]; Rate 31): 85
- PHAMI plant response ([16]; Rate 62): 90
- LAMAM plant response ([17]; Rate 8): 90
- LAMAM plant response ([17]; Rate 16): 95
- LAMAM plant response ([17]; Rate 31): 95
- LAMAM plant response ([17]; Rate 62): 90
- CHEAL plant response ([18]; Rate 8): 60
- CHEAL plant response ([18]; Rate 16): 85
- CHEAL plant response ([18]; Rate 31): 75
- CHEAL plant response ([18]; Rate 62): 80
- ALOMY plant response ([19]; Rate 8): 100
- ALOMY plant response ([19]; Rate 16): 100
- ALOMY plant response ([19]; Rate 31): 100
- ALOMY plant response ([19]; Rate 62): 100
- HORBW plant response ([20]; Rate 8): 20
- HORBW plant response ([20]; Rate 16): 30
- HORBW plant response ([20]; Rate 31): 60
- HORBW plant response ([20]; Rate 62): 70
- GALAP plant response ([21]; Rate 8): 90
- GALAP plant response ([21]; Rate 16): 95
- GALAP plant response ([21]; Rate 31): 90
- GALAP plant response ([21]; Rate 62): 100
- PAPRH plant response ([22]; Rate 8): 100
- PAPRH plant response ([22]; Rate 16): 90
- PAPRH plant response ([22]; Rate 31): 100
- PAPRH plant response ([22]; Rate 62): 95
- SASKR plant response ([23]; Rate 8): 50
- SASKR plant response ([23]; Rate 16): 50
- SASKR plant response ([23]; Rate 31): 50
- SASKR plant response ([23]; Rate 62): 60
- LOLMU plant response ([24]; Rate 8): 60
- LOLMU plant response ([24]; Rate 16): 60
- LOLMU plant response ([24]; Rate 31): 65
- LOLMU plant response ([24]; Rate 62): 80
- SINAR plant response ([25]; Rate 8): 100
- SINAR plant response ([25]; Rate 16): 95
- SINAR plant response ([25]; Rate 31): 100
- SINAR plant response ([25]; Rate 62): 100
- RAPRA plant response ([26]; Rate 8): 100
- RAPRA plant response ([26]; Rate 16): 100
- RAPRA plant response ([26]; Rate 31): 100
- RAPRA plant response ([26]; Rate 62): 100
- TRZAW plant response ([27]; Rate 8): 0
- TRZAW plant response ([27]; Rate 16): 5
- TRZAW plant response ([27]; Rate 31): 5
- TRZAW plant response ([27]; Rate 62): 25
- VIOAR plant response ([28]; Rate 8): 50
- VIOAR plant response ([28]; Rate 16): 75
- VIOAR plant response ([28]; Rate 31): 70
- VIOAR plant response ([28]; Rate 62): 95
- STEME plant response ([29]; Rate 8): 90
- STEME plant response ([29]; Rate 16): 100
- STEME plant response ([29]; Rate 31): 100
- STEME plant response ([29]; Rate 62): 100
- POLCO plant response ([30]; Rate 8): 100
- POLCO plant response ([30]; Rate 16): 85
- POLCO plant response ([30]; Rate 31): 100
- POLCO plant response ([30]; Rate 62): 100
